This is an account of results in US6974835B2, “Methods for decreasing cell proliferation based on (3r,4r)-Δ8-tetrahydrocannabinol-11-oic acids” (Indevus Pharmaceuticals, Inc., priority 2000, dated 2005).

One data set relates to tumor cells. Kind of data set: Stereospecificity of inhibition of cell proliferation (D-isomer vs L-isomer). The settings on record: 25 μM dose, FIG. 2, p<0.001. It is filed as cell-based.
The subject of the next data set is C6 cells. Kind of data set: Lipid incorporation assay. It is filed as cell-based. As to conditions: 25 μM, 14C-labeled arachidonic acid, 48 hours; for neutral lipids, increase above basal levels: FIG. 3.
Another data set concerns U87. Kind of data set: 48 hour MTT assay, U87. The settings on record: U87 (Brain), 25 μM. In general terms: Formazan colour is commonly taken as a measure of viable cells.
The subject of the next data set is J82. Kind of data set: 48 hour MTT assay, J82. As to conditions: J82 (Bladder), 25 μM.
The next data set concerns PC3. Kind of data set: 48 hour MTT assay, PC3. As to conditions: PC3 (Prostate), 25 μM.
The next data set deals with U373. Kind of data set: 48 hour MTT assay, U373. The settings on record: U373 (Brain), 25 μM.
The next data set deals with Du145. Kind of data set: 48 hour MTT assay, Du145. As to conditions: Du145 (Prostate), 25 μM.
In a further data set the test system is HS578T. Kind of data set: 48 hour MTT assay, HS578T. The settings on record: HS578T (Breast), 25 μM.
For data set [1], the system named is human cell lines derived from a variety of cancer types (brain, breast, bladder, lung, and prostate). Kind of data set: 48 hour MTT assay, mean over the human cancer cell lines. As to conditions: 25 μM, mean of the ten lines of Table 1.
For data set [2], the system named is C6 glioma cells. Kind of data set: Microscopy of treated cells (cell size, refractile bodies, electron microscopy).
The test system of data set [3] is C6 glioma cells. Kind of data set: Co-incubation with a CB1 antagonist, cell proliferation. As to conditions: 3.2 μM of a specific CB1 antagonist. It is filed as cell-based.
In the next data set the test system is WI38 cells. Kind of data set: Phase microscopy for refractile bodies, WI38. It counts as cell-based, rat. As to conditions: 48 hours, same dosage.
In another data set the test system is Protein kinase C (PKC). Kind of data set: Protein kinase C (PKC) assay. It is filed as cell-based. As to conditions: C6 cells, 25 μM, for one hour. Here is the method: Protein kinase C (PKC) assay. Cells were transferred into MEM media (0.5% serum) and cultured overnight. The next day, cells were treated with either DMSO or 25 μM ajulemic acid for the specified incubation time, after which the plates were trypsinized. 5×10^6 trypsinized cells were assayed for PKC activity using a kit (Calbiochem, cat. no. 53984).

The test system of data set [4] is human glioma cell line U87 injected subcutaneously in nude mice. Kind of data set: In vivo subcutaneous model. The settings on record: 0.1 mg/kg thrice weekly, FIG. 4. Here is the method: In vivo subcutaneous model. 10^6 U87 cells were injected into the right flank muscle of male nu/nu BALBc mice (Charles River). Two days after inoculation, the mice received either 0.1 mg/kg ajulemic acid in 0.05 ml of safflower oil or 0.05 ml safflower oil by oral administration. Thereafter, identical dosings were performed on each Monday, Wednesday, and Friday. When visible tumors appeared, the size of the tumors were estimated by averaging the values of two roughly perpendicular diameters measurements. Visible tumors were measured on the days of drug administration.

Data set [5] deals with C6 glioma cells. Kind of data set: Viability by trypan blue exclusion.

Structures are written as SMILES.

Take `CCCCCCC(C)(C)c1cc(O)c2c(c1)OC(C)(C)[C@@H]1CC=C(C(=O)O)C[C@@H]21` (single isomer, unassigned) [D-isomer of ajulemic acid]: the “potency of D-isomer compared to the L-isomer of ajulemic acid” value with tumor cells is “marked decrease in the potency”.

`CCCCCc1cc(O)c2c(c1)OC(C)(C)[C@@H]1CC=C(C(=O)O)C[C@@H]21` [THC-11-oic acid]: the “neutral lipids, increase above basal levels” value in the data set with C6 cells is reported as “significant increase above basal levels was only noted for ajulemic acid”. Besides, the “Percent inhibition of human cancer cell line growth” value in the data set with U87 turned out to be 5 ± 1%; in the data set with J82, 1 ± 1%; in the data set on PC3, 1 ± 1%; in the data set with U373 it was 0%; in the data set with Du145, 7 ± 3%; with HS578T, 2 ± 1%. Moreover, the “inhibition levels (mean±SD) over the human cell lines” value in data set [1] turned out to be 13.1±18.5%. For the same molecule, the “refractile bodies noted (in words)” value in the data set with C6 glioma cells [2] (C6 glioma cells, 25 μM, 48 hours) was “no refractile bodies were noted”.

For the molecule `CCCCCCC(C)(C)c1cc(O)c2c(c1)OC(C)(C)[C@@H]1CC=C(C(=O)O)C[C@@H]21` [ajulemic acid, 1′,1′-dimethylheptyl-Δ^8-THC-11-oic acid], the “change in potency on co-incubation with CB1 antagonist” value in the data set on C6 glioma cells [3] was “slight potentiation”. Further, the “refractile bodies noted (in words)” value with WI38 cells is “no refractile bodies were noted”. In the data set on C6 cells, the “content of tri- and di-glyceride versus controls” value is recorded as “over three-fold greater than in controls”; the “neutral lipids, increase above basal levels” value is listed as “significant increase above basal levels”. Also, the “PKC activity versus control” value in the data set on Protein kinase C (PKC) is reported as “approximately two-fold above that of control”. Further, the “appearance and size of tumors (in words)” value in [4] was “delay in both the appearance and size of tumors”. In the data set with C6 glioma cells [5], this molecule came in with a viability rate of over 95%. Moreover, the cell size entry with C6 glioma cells [2] (after 48 hours of exposure) was “marked increase in cell size”. Moreover, the “appearance under electron microscopy” value with C6 glioma cells [2] (treated cells) was “neither apoptotic nor necrotic”.

For the molecule `CCCCCc1cc(O)c2c(c1)OC(C)(C)[C@@H]1CCC(C)=C[C@@H]21` [Δ^9-THC, tetrahydrocannabinol], the “change in potency on co-incubation with CB1 antagonist” value with C6 glioma cells [3] amounted to 150%. Moreover, the “neutral lipids, increase above basal levels” value in the data set with C6 cells is listed as “significant increase above basal levels was only noted for ajulemic acid”.
